Assay results: ChEMBL document CHEMBL1201862, “PubChem BioAssay data set” (2004)
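These data come from cells grown in 96-well plates and exposed to compound for 48 hours at five concentrations. GI50 is the concentration that inhibits growth by half.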 Active and inactive are the calls of the source. Cut-off read from the data, not from the text of the source: active = GI50 up to about 1.1 µM and inactive = higher.

What was measured:
Assay in all cases: inhibition of tumour cell growth, NCI panel, 48 h
[1] = tested on: MOLT-4
[2] = tested on: OVCAR-5
[3] = tested on: TK-10
[4] = tested on: PC-3
[5] = tested on: COLO 205
[6] = tested on: SNB-19
[7] = tested on: IGROV-1
[8] = tested on: HOP-62
[9] = tested on: A549
[10] = tested on: SW-620
[11] = tested on: MDA-MB-435
[12] = tested on: K562
[13] = tested on: SK-OV-3
[14] = tested on: U-251
[15] = tested on: RXF 393
[16] = tested on: SN12C
[17] = tested on: UACC-62
[18] = tested on: SNB-75
[19] = tested on: RPMI-8226
[20] = tested on: HOP-92

Measured: GI50

CCCSc1cc(Cl)c(C)cc1S(=O)(=O)n1ccnc1OCCCN(C)C
inactive: [1] > 100 µM | [2] > 100 µM | [3] > 100 µM | [4] > 100 µM | [5] > 100 µM | [6] > 100 µM | [7] > 100 µM | [8] > 100 µM | [9] > 100 µM | [10] > 100 µM | [11] > 100 µM | [12] > 100 µM | [13] > 100 µM | [14] > 100 µM | [15] > 100 µM | [16] > 100 µM | [17] > 100 µM

CP(C)(=S)P(C)(C)=S
inactive: [1] > 100 µM | [2] > 100 µM | [3] > 100 µM | [4] > 100 µM | [5] > 100 µM | [18] > 100 µM | [6] > 100 µM | [7] 78.5 µM | [8] > 100 µM | [19] > 100 µM | [9] > 100 µM | [10] > 100 µM | [12] > 100 µM | [13] > 100 µM | [14] > 100 µM | [15] > 100 µM | [16] > 100 µM | [17] > 100 µM

N#C/C(=C/C=C/c1ccco1)C(N)=O
inactive: [2] > 10 µM | [3] > 10 µM | [4] > 10 µM | [5] > 10 µM | [18] > 10 µM | [7] > 10 µM | [8] > 10 µM | [10] > 10 µM | [11] > 10 µM | [13] > 10 µM | [14] > 10 µM | [15] > 10 µM | [16] > 10 µM

Cc1ccc(OCC2OC(n3cnc4c(N(C)C)nc(Br)nc43)CC2Oc2ccc(C)cc2)cc1 (stereo not drawn)
inactive: [2] > 100 µM | [3] > 100 µM | [4] > 100 µM | [5] > 100 µM | [6] > 100 µM | [7] > 100 µM | [19] 58.2 µM | [9] > 100 µM | [10] > 100 µM | [11] > 100 µM | [12] > 100 µM | [13] > 100 µM | [20] > 100 µM | [14] > 100 µM | [16] > 100 µM | [17] > 100 µM

NC1c2c(Br)sc(N3CCCC3)c2C(=O)C1O (stereo not drawn)
inactive: [1] > 50 µM | [2] > 50 µM | [3] > 50 µM | [4] > 50 µM | [5] > 50 µM | [18] > 50 µM | [6] > 50 µM | [7] > 50 µM | [9] > 50 µM | [10] > 50 µM | [11] > 50 µM | [12] > 50 µM | [13] > 50 µM | [20] 26.2 µM | [14] > 50 µM | [16] > 50 µM | [17] > 50 µM

CSc1nc(=O)n(CCC#N)nc1SC
inactive: [1] 23.7 µM | [2] 41.8 µM | [3] 40.2 µM | [4] 66.5 µM | [5] 19.5 µM | [18] 51.5 µM | [6] > 100 µM | [7] > 100 µM | [8] > 100 µM | [19] 22.8 µM | [9] > 100 µM | [10] 21 µM | [11] 23.1 µM | [12] 25.6 µM | [13] > 100 µM | [14] > 100 µM | [16] 47.9 µM | [17] 32.3 µM

Cc1cccc(N(CCC#N)S(=O)(=O)c2ccccc2)c1
inactive: [1] > 100 µM | [2] > 100 µM | [3] > 100 µM | [4] > 100 µM | [5] > 100 µM | [18] > 100 µM | [6] > 100 µM | [7] > 100 µM | [8] > 100 µM | [19] > 100 µM | [9] > 100 µM | [10] > 100 µM | [11] > 100 µM | [12] > 100 µM | [13] > 100 µM | [20] > 100 µM | [14] > 100 µM | [16] > 100 µM | [17] > 100 µM
